Read-outs that look alike come from different tables or passages of the source. Values belong to the compound of their own block, whether it stands above or below them.
Key:
Format in all cases: biochemical
[1] = molecular target: T1, Alzheimer's Aβ 1-42 amyloid fibrils (Homo sapiens, UniProt P05067); assay: Disassembly/disruption of pre-formed Aβ 1-42 fibrils, Thioflavin T fluorometry; details: for inhibition at 100 µg/mL: read-out: Fluorescence inhibition, %, at the Aβ 1-42:compound w/w ratio 1:1
T1 construct: 1 mg of Aβ 1-42 (Bachem Inc., Torrance, Calif., USA) was dissolved; purchased Bachem Inc., Torrance, Calif., USA
Method: For the first study, 1 mg of Aβ 1-42 (Bachem Inc., Torrance, Calif., USA) was dissolved in 1.0 ml of double distilled water (1 mg/ml solution). 25 μM of Aβ 1-42 was then incubated overnight (˜18 hours) at 37° C., in the absence or presence of 100 μg/ml of the following compounds: 1) EDTA (Sigma Chemical Company, St. Louis, Mo., USA), 2) myricetin (Acros, Somerville, N.J., USA), 3) exifone (Acros) 4) pyrogallol (Sigma), 5) tannic acid (Acros), 6) pyrocatechol (Acros), 7) quercetin (Sigma), 8) ellagic acid (Acros), 9) 1,2,4-benzenetriol (Acros), 10) 5-hydroxydopamine (Acros), 11) gallamide hydrate (Acros), 12) gallic acid (Sigma), 13) ethyl gallate (Acros), 14) quinic acid (Acros), 15) propyl gallate (Sigma), and 16) phloroglucide (Acros), each in the presence of 150 mM Tris HCl, 10 mM NaCl (pH 7.0) with 0.02% sodium azide. In this study, the A 1-42:compound weight ratio was 1:1. […]
Thioflavin T is known to bind to fibrillar amyloid proteins, and an increase in fluorescence correlates with an increase in amyloid fibril formation, whereas a decrease in fluorescence correlates with a decrease in amyloid fibrils due to disassembly and/or disruption. The Alzheimer's Aβ protein (1-42) when placed in solution, such as distilled water, tends to spontaneously form amyloid fibrils. Using this sensitive assay, any decreases or increases in fluorescence was previously shown to correlate with a decrease or increase in the amount of amyloid fibrils (see the documents cited above), allowing one to identify and quantitate the extent of potential inhibitors and/or enhancers of Alzheimer's Aβ 1-42 amyloid fibrils.
To assess the effects of each compound on potential disassembly/disruption of preformed Aβ 1-42 fibrils, 50 μl of Aβ 1-42 with or without test compounds (described above) were added to 1.2 ml of 100 μM Thioflavin T (Sigma) in 50 mM NaH2PO4 (pH 6.0) for fluorometry readings. […] Fluorescence emission at 482 nm was measured on a Turner instrument-model 450 fluorometer at an excitation wavelength of 450 nm. For each determination, the fluorometer was calibrated by zeroing in the presence of the Thioflavin T reagent alone, and by setting the 50 ng/ml riboflavin (Sigma Chemical Co., St. Louis, Mo.) in the Thioflavin T reagent to 1800 fluorescence units. All fluorescence determinations were based on these references and any fluorescence given off by any of the compounds in the presence of the Thioflavin T reagent was always subtracted from all pertinent readings.
For all fibrillogenesis studies utilizing Thioflavin T fluorometry, as disclosed herein, comparisons of amyloid protein in the presence or absence of test compounds were based on paired Student's t tests with data shown as the mean of triplicate measurements±standard deviation.

human amylin fibrils = molecular target: T2, human amylin fibrils (Homo sapiens, UniProt P10997); assay: Congo red staining of amylin fibrils on slides; details: overnight incubation of amylin with compound, compared with amylin alone
T2 construct: This amyloid protein involved consists of a 37 amino acid protein known as islet amyloid polypeptide or amylin; purchased Bachem
T2 sequence (P10997 34-70 limits assumed): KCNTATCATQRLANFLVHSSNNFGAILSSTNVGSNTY
Method: Following Thioflavin T fluorometry readings as described in Example 1, 5 μl aliquots of amylin only, amylin+myricetin, amylin+exifone, and amylin+tannic acid were also taken, allowed to air dry overnight on gelatin-coated slides, and stained with Congo red as previously described (Castillo et al., Diabetes 47:612-620, 1998).

Aβ 1-40 amyloid fibrils = molecular target: T3, Aβ 1-40 amyloid fibrils (Homo sapiens, UniProt P05067); assay: Dose-dependent disaggregation of fibrillized Aβ 1-40, Congo red-Aβ spectrophotometric assay; details: w/w 1:1, 100 μg/ml compound, 25 μM Aβ 1-40, overnight (~18 hours) at 37° C.
T3 construct: 1 mg of Aβ 1-40 (Bachem Inc., Torrance, Calif., USA; Lot # T-20824) was dissolved; purchased Bachem Inc., Torrance, Calif., USA
Method: In this study, a Congo red-Aβ spectrophotometric assay (Klunk et al., Anal. Biochem. 266:66-76, 1999) was modified to determine the effectiveness of polyhydroxylated aromatic compounds on the disaggregation of pre-formed Aβ 1-40 amyloid fibrils. For this assay, 1 mg of Aβ 1-40 (Bachem) was incubated for 4 days in distilled water at 37° C. to spontaneously produce amyloid fibrils. […] Following incubation, 50 μl of 360 μM Congo red (Sigma) in distilled water was then added to 250 μl of each incubation mixture, giving a final Aβ:Congo red molar ratio of 1:3. After 10 minutes, the absorbance at 405 nm (reference wavelength to account for the absorbance of Congo red alone at 540 nm) and 540 nm (sample absorbance where “sample” refers to Aβ alone, test compound alone, or Aβ plus test compound, all in the presence of Congo red) was determined using a Biorad Model 550 ELISA Plate Reader (Biorad, Hercules, Calif., USA). The absorbance at wavelength 405 nm was automatically subtracted by the ELISA plate reader from the absorbance at wavelength 540 nm (difference is referred to as A absorbance)(see Klunk et al. cited above). Therefore, the A absorbance reading at 540 nm was proportional to the amount of aggregated Aβ left in solution (Klunk et al.). […]
In this study, the potential dose-dependent effects of tannic acid and gallic acid on the disaggregation of fibrillized Aβ 1-40 was assessed. […]

[2] = Aβ 1-42:compound w/w 1:1, 100 μg/ml compound, 25 μM Aβ 1-42, overnight (~18 hours) at 37° C., mean of triplicate ± SD

T1 sequence (P05067 672-713): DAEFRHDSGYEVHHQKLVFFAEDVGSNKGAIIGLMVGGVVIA
T3 sequence (P05067 672-711): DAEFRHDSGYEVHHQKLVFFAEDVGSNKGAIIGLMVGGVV

SMILES: Oc1ccc(O)c(O)c1 [1,2,4-Benzenetriol, 1,2,4-benzenetriol]
inhibition at 100 µg/mL [1, 2]: 71 ± 3.3%

SMILES: NCCc1cc(O)c(O)c(O)c1 [5-Hydroxydopamine, 5-hydroxydopamine]
inhibition at 100 µg/mL [1, 2]: 70 ± 1.1%

Disassembly/disruption of Aβ 1-42 amyloid fibrils (result in words) ([1]; 100 μg/ml, 25 μM Aβ 1-42, overnight (~18 hours) at 37° C., Thioflavin T fluorometry): no significant disassembly/disruption
SMILES: O=C(O)CN(CCN(CC(=O)O)CC(=O)O)CC(=O)O [EDTA, reference compound]

inhibition at 100 µg/mL [1, 2]: 74 ± 1.4%
SMILES: O=c1oc2c(O)c(O)cc3c(=O)oc4c(O)c(O)cc1c4c23 [Ellagic acid, ellagic acid]

inhibition at 100 µg/mL [1, 2]: 49 ± 0.8%
SMILES: CCOC(=O)c1cc(O)c(O)c(O)c1 [Ethyl gallate, ethyl gallate]

SMILES: O=C(c1cc(O)c(O)c(O)c1)c1ccc(O)c(O)c1O [Exifone, exifone]
Congo red staining of amylin fibrils (red/green birefringence under polarized light) (human amylin fibrils): marked decrease in Congo red staining | inhibition at 100 µg/mL ([1]; 18 h): 93 ± 1.4%

SMILES: NC(=O)c1cc(O)c(O)c(O)c1 [Gallamide trihydrate, gallamide trihydrate]
inhibition at 100 µg/mL ([1]; 18 h): 65 ± 12.3%

inhibition at 100 µg/mL [1, 2]: 57 ± 1.9% | Decrease in absorbance, %, at the Aβ 1-40:compound w/w ratio 1:1 (Aβ 1-40 amyloid fibrils): 32 ± 4.8%
SMILES: O=C(O)c1cc(O)c(O)c(O)c1 [Gallic acid, gallic acid]

SMILES: O=c1c(O)c(-c2cc(O)c(O)c(O)c2)oc2cc(O)cc(O)c12 [Myricetin, myricetin]
Congo red staining of amylin fibrils (red/green birefringence under polarized light) (human amylin fibrils): marked decrease in Congo red staining | inhibition at 100 µg/mL ([1]; 18 h): 94 ± 0.9%

inhibition at 100 µg/mL [1, 2]: 29 ± 2.8%
SMILES: CCCOC(=O)c1cc(O)c(O)c(O)c1 [Propyl gallate, propyl gallate]

SMILES: Oc1ccccc1O [Pyrocatechol, pyrocatechol]
inhibition at 100 µg/mL [1, 2]: 77 ± 2.6%

inhibition at 100 µg/mL [1, 2]: 89 ± 6.7%
SMILES: Oc1cccc(O)c1O [Pyrogallol, pyrogallol]

SMILES: O=c1c(O)c(-c2ccc(O)c(O)c2)oc2cc(O)cc(O)c12 [Quercetin, quercetin]
Fluorescence inhibition, %, at the Aβ 1-42:compound w/w ratio 1:1 [1, 2]: 76 ± 0.6%

inhibition at 100 µg/mL [1, 2]: 31 ± 9%
SMILES: O=C(O)[C@]1(O)C[C@@H](O)[C@@H](O)[C@H](O)C1 [Quinic acid, quinic acid]

SMILES: O=C(OC[C@H]1O[C@@H](OC(=O)c2cc(O)c(O)c(OC(=O)c3cc(O)c(O)c(O)c3)c2)[C@H](OC(=O)c2cc(O)c(O)c(OC(=O)c3cc(O)c(O)c(O)c3)c2)[C@@H](OC(=O)c2cc(O)c(O)c(OC(=O)c3cc(O)c(O)c(O)c3)c2)[C@@H]1OC(=O)c1cc(O)c(O)c(OC(=O)c2cc(O)c(O)c(O)c2)c1)c1cc(O)c(O)c(OC(=O)c2cc(O)c(O)c(O)c2)c1 [Tannic acid, tannic acid]
Congo red staining of amylin fibrils (red/green birefringence under polarized light) (human amylin fibrils): marked decrease in Congo red staining | inhibition at 100 µg/mL ([1]; 18 h): 77 ± 1.3%
